According to BigSolDB 2.1:

O=C(O)[C@@H]1C[C@@H](O)CN1
solubility (mole fraction) (in 1,4-dioxane, 288.15 K): 0.00041
solubility (mole fraction) (in 1,4-dioxane, 293.15 K): 0.00063
solubility (mole fraction) (in 1,4-dioxane, 298.15 K): 0.00085
solubility (mole fraction) (in 1,4-dioxane, 303.15 K): 0.00108
solubility (mole fraction) (in 1,4-dioxane, 308.15 K): 0.00131
solubility (mole fraction) (in 1,4-dioxane, 313.15 K): 0.00153
solubility (mole fraction) (in 1,4-dioxane, 318.15 K): 0.00178
solubility (mole fraction) (in 1,4-dioxane, 323.15 K): 0.00204
solubility (mole fraction) (in 1,4-dioxane, 328.15 K): 0.00238
solubility (mole fraction) (in 1,4-dioxane, 333.15 K): 0.00274
solubility (mole fraction) (in 2-butanone, 283.15 K): 4.4e-05
solubility (mole fraction) (in 2-butanone, 288.15 K): 7.9e-05
solubility (mole fraction) (in 2-butanone, 293.15 K): 0.000128
solubility (mole fraction) (in 2-butanone, 298.15 K): 0.00019
solubility (mole fraction) (in 2-butanone, 303.15 K): 0.00028
solubility (mole fraction) (in 2-butanone, 308.15 K): 0.000382
solubility (mole fraction) (in 2-butanone, 313.15 K): 0.000483
solubility (mole fraction) (in 2-butanone, 318.15 K): 0.000602
solubility (mole fraction) (in 2-butanone, 323.15 K): 0.000723
solubility (mole fraction) (in 2-butanone, 328.15 K): 0.000865
solubility (mole fraction) (in 2-butanone, 333.15 K): 0.00101
solubility (mole fraction) (in acetone, 283.15 K): 0.000922
solubility (mole fraction) (in acetone, 288.15 K): 0.0011
solubility (mole fraction) (in acetone, 293.15 K): 0.00139
solubility (mole fraction) (in acetone, 298.15 K): 0.00164
solubility (mole fraction) (in acetone, 303.15 K): 0.00205
solubility (mole fraction) (in acetone, 308.15 K): 0.00235
solubility (mole fraction) (in acetone, 313.15 K): 0.00277
solubility (mole fraction) (in acetone, 318.15 K): 0.0032
solubility (mole fraction) (in acetone, 323.15 K): 0.00383
solubility (mole fraction) (in acetone, 328.15 K): 0.00441
solubility (mole fraction) (in acetonitrile, 288.15 K): 3.3e-05
solubility (mole fraction) (in acetonitrile, 293.15 K): 6.5e-05
solubility (mole fraction) (in acetonitrile, 298.15 K): 0.000103
solubility (mole fraction) (in acetonitrile, 303.15 K): 0.000146
solubility (mole fraction) (in acetonitrile, 308.15 K): 0.000186
solubility (mole fraction) (in acetonitrile, 313.15 K): 0.000226
solubility (mole fraction) (in acetonitrile, 318.15 K): 0.000267
solubility (mole fraction) (in acetonitrile, 323.15 K): 0.000315
solubility (mole fraction) (in acetonitrile, 328.15 K): 0.000358
solubility (mole fraction) (in acetonitrile, 333.15 K): 0.000416
solubility (mole fraction) (in dichloromethane, 283.15 K): 0.000134
solubility (mole fraction) (in dichloromethane, 288.15 K): 0.000221
solubility (mole fraction) (in dichloromethane, 293.15 K): 0.000313
solubility (mole fraction) (in dichloromethane, 298.15 K): 0.000412
solubility (mole fraction) (in dichloromethane, 303.15 K): 0.000511
solubility (mole fraction) (in dichloromethane, 308.15 K): 0.000614
solubility (mole fraction) (in ethanol, 283.15 K): 7e-05
solubility (mole fraction) (in ethanol, 288.15 K): 0.000109
solubility (mole fraction) (in ethanol, 293.15 K): 0.000145
solubility (mole fraction) (in ethanol, 298.15 K): 0.000188
solubility (mole fraction) (in ethanol, 303.15 K): 0.000226
solubility (mole fraction) (in ethanol, 308.15 K): 0.000273
solubility (mole fraction) (in ethanol, 313.15 K): 0.000313
solubility (mole fraction) (in ethanol, 318.15 K): 0.000378
solubility (mole fraction) (in ethanol, 323.15 K): 0.000431
solubility (mole fraction) (in ethanol, 328.15 K): 0.000512
solubility (mole fraction) (in ethanol, 333.15 K): 0.000573
solubility (mole fraction) (in ethyl acetate, 283.15 K): 0.000455
solubility (mole fraction) (in ethyl acetate, 288.15 K): 0.000653
solubility (mole fraction) (in ethyl acetate, 293.15 K): 0.000863
solubility (mole fraction) (in ethyl acetate, 298.15 K): 0.00108
solubility (mole fraction) (in ethyl acetate, 303.15 K): 0.00132
solubility (mole fraction) (in ethyl acetate, 308.15 K): 0.00167
solubility (mole fraction) (in ethyl acetate, 313.15 K): 0.0019
solubility (mole fraction) (in ethyl acetate, 318.15 K): 0.00227
solubility (mole fraction) (in ethyl acetate, 323.15 K): 0.00262
solubility (mole fraction) (in ethyl acetate, 328.15 K): 0.00314
solubility (mole fraction) (in ethyl acetate, 333.15 K): 0.00379
solubility (mole fraction) (in isobutanol, 283.15 K): 6.9e-05
solubility (mole fraction) (in isobutanol, 288.15 K): 8.2e-05
solubility (mole fraction) (in isobutanol, 293.15 K): 9.7e-05
solubility (mole fraction) (in isobutanol, 298.15 K): 0.000113
solubility (mole fraction) (in isobutanol, 303.15 K): 0.000143
solubility (mole fraction) (in isobutanol, 308.15 K): 0.000189
solubility (mole fraction) (in isobutanol, 313.15 K): 0.000222
solubility (mole fraction) (in isobutanol, 318.15 K): 0.000263
solubility (mole fraction) (in isobutanol, 323.15 K): 0.000301
solubility (mole fraction) (in isobutanol, 328.15 K): 0.000346
solubility (mole fraction) (in isobutanol, 333.15 K): 0.000383
solubility (mole fraction) (in isopropanol, 283.15 K): 3.5e-05
solubility (mole fraction) (in isopropanol, 288.15 K): 6.8e-05
solubility (mole fraction) (in isopropanol, 293.15 K): 9.9e-05
solubility (mole fraction) (in isopropanol, 298.15 K): 0.000119
solubility (mole fraction) (in isopropanol, 303.15 K): 0.000154
solubility (mole fraction) (in isopropanol, 308.15 K): 0.000204
solubility (mole fraction) (in isopropanol, 313.15 K): 0.000254
solubility (mole fraction) (in isopropanol, 318.15 K): 0.00031
solubility (mole fraction) (in isopropanol, 323.15 K): 0.00036
solubility (mole fraction) (in isopropanol, 328.15 K): 0.000419
solubility (mole fraction) (in isopropanol, 333.15 K): 0.000493
solubility (mole fraction) (in methanol, 283.15 K): 0.000127
solubility (mole fraction) (in methanol, 288.15 K): 0.000149
solubility (mole fraction) (in methanol, 293.15 K): 0.000171
solubility (mole fraction) (in methanol, 298.15 K): 0.000212
solubility (mole fraction) (in methanol, 303.15 K): 0.000253
solubility (mole fraction) (in methanol, 308.15 K): 0.000292
solubility (mole fraction) (in methanol, 313.15 K): 0.000328
solubility (mole fraction) (in methanol, 318.15 K): 0.000407
solubility (mole fraction) (in methanol, 323.15 K): 0.000525
solubility (mole fraction) (in methanol, 328.15 K): 0.000653
solubility (mole fraction) (in methanol, 333.15 K): 0.000784
solubility (mole fraction) (in methyl acetate, 283.15 K): 1.5e-05
solubility (mole fraction) (in methyl acetate, 288.15 K): 4e-05
solubility (mole fraction) (in methyl acetate, 293.15 K): 8e-05
solubility (mole fraction) (in methyl acetate, 298.15 K): 0.000116
solubility (mole fraction) (in methyl acetate, 303.15 K): 0.000153
solubility (mole fraction) (in methyl acetate, 308.15 K): 0.000219
solubility (mole fraction) (in methyl acetate, 313.15 K): 0.000278
solubility (mole fraction) (in methyl acetate, 318.15 K): 0.000331
solubility (mole fraction) (in methyl acetate, 323.15 K): 0.0004
solubility (mole fraction) (in methyl acetate, 328.15 K): 0.000474
solubility (mole fraction) (in n-butanol, 283.15 K): 8.8e-05
solubility (mole fraction) (in n-butanol, 288.15 K): 0.0001
solubility (mole fraction) (in n-butanol, 293.15 K): 0.000122
solubility (mole fraction) (in n-butanol, 298.15 K): 0.000142
solubility (mole fraction) (in n-butanol, 303.15 K): 0.000181
solubility (mole fraction) (in n-butanol, 308.15 K): 0.000219
solubility (mole fraction) (in n-butanol, 313.15 K): 0.000264
solubility (mole fraction) (in n-butanol, 318.15 K): 0.000316
solubility (mole fraction) (in n-butanol, 323.15 K): 0.000362
solubility (mole fraction) (in n-butanol, 328.15 K): 0.00042
solubility (mole fraction) (in n-butanol, 333.15 K): 0.0005
solubility (mole fraction) (in n-pentanol, 283.15 K): 6.3e-05
solubility (mole fraction) (in n-pentanol, 288.15 K): 8.4e-05
solubility (mole fraction) (in n-pentanol, 293.15 K): 0.000114
solubility (mole fraction) (in n-pentanol, 298.15 K): 0.000142
solubility (mole fraction) (in n-pentanol, 303.15 K): 0.00017
solubility (mole fraction) (in n-pentanol, 308.15 K): 0.000215
solubility (mole fraction) (in n-pentanol, 313.15 K): 0.000321
solubility (mole fraction) (in n-pentanol, 318.15 K): 0.000487
solubility (mole fraction) (in n-pentanol, 323.15 K): 0.000628
solubility (mole fraction) (in n-pentanol, 328.15 K): 0.000805
solubility (mole fraction) (in n-pentanol, 333.15 K): 0.00104
solubility (mole fraction) (in n-propanol, 283.15 K): 6.6e-05
solubility (mole fraction) (in n-propanol, 288.15 K): 0.000109
solubility (mole fraction) (in n-propanol, 293.15 K): 0.000126
solubility (mole fraction) (in n-propanol, 298.15 K): 0.000154
solubility (mole fraction) (in n-propanol, 303.15 K): 0.000203
solubility (mole fraction) (in n-propanol, 308.15 K): 0.000253
solubility (mole fraction) (in n-propanol, 313.15 K): 0.000304
solubility (mole fraction) (in n-propanol, 318.15 K): 0.000355
solubility (mole fraction) (in n-propanol, 323.15 K): 0.000409
solubility (mole fraction) (in n-propanol, 328.15 K): 0.000456
solubility (mole fraction) (in n-propanol, 333.15 K): 0.000502
solubility (mole fraction) (in sec-butanol, 283.15 K): 3.8e-05
solubility (mole fraction) (in sec-butanol, 288.15 K): 6.8e-05
solubility (mole fraction) (in sec-butanol, 293.15 K): 9e-05
solubility (mole fraction) (in sec-butanol, 298.15 K): 0.000129
solubility (mole fraction) (in sec-butanol, 303.15 K): 0.000166
solubility (mole fraction) (in sec-butanol, 308.15 K): 0.000205
solubility (mole fraction) (in sec-butanol, 313.15 K): 0.000245
solubility (mole fraction) (in sec-butanol, 318.15 K): 0.000293
solubility (mole fraction) (in sec-butanol, 323.15 K): 0.000321
solubility (mole fraction) (in sec-butanol, 328.15 K): 0.000365
solubility (mole fraction) (in sec-butanol, 333.15 K): 0.000407
solubility (mole fraction) (in water, 283.15 K): 0.0457
solubility (mole fraction) (in water, 288.15 K): 0.0473
solubility (mole fraction) (in water, 293.15 K): 0.0493
solubility (mole fraction) (in water, 298.15 K): 0.0511
solubility (mole fraction) (in water, 303.15 K): 0.053
solubility (mole fraction) (in water, 308.15 K): 0.0554
solubility (mole fraction) (in water, 313.15 K): 0.0571
solubility (mole fraction) (in water, 318.15 K): 0.059
solubility (mole fraction) (in water, 323.15 K): 0.0612
solubility (mole fraction) (in water, 328.15 K): 0.0632
solubility (mole fraction) (in water, 333.15 K): 0.0671
